Source: patent US5556777A, “Immunosuppressive pharmaceutical compositions new biological activity from a marine agrobacterium sp” (PharmaMar, s.a., priority 1993, dated 1996)
Converted amounts (≈) assume the structure as drawn.

How the values were obtained:
[1] = system: Agrobacterium sp. strain PH-103; test: Antibiotic sensitivity of strain PH-103 (sensitivity discs); assay type: cell-based; conditions: 27° C.
Experimental: 18. Antibiotic sensitivity--ATCC number 231 basal medium. Difco sensitivity discs
The culture was incubated at 27° C. and records of the results were made after suitable incubation times. All media were prepared with 2.7% Instant Ocean Salts and pH was approximately neutral (7-7.4). The description of the culture and test results are as follows: […]

[2] = system: primary mixed lymphocyte cultures (MLRs) and alloreactive T cells; conditions: compared with cyclosporin A; cited from earlier work
Graft-v-Host Reaction = test: In vivo Graft-v-Host reaction (GVHR), spleen index; parameters: species or system mouse
Experimental: Any sample that prevents splenomegaly (<graft index) is considered as an immunosuppressive active.
A standard of cyclophosphamide (200 mg/kg) is used. Experimental animals are sacrificed on D8 and spleens removed. […] Moribund animals are sacrificed immediately.

[3] = system: murine lymphocytes (Balb/c); test: Lymphocyte viability / cytotoxicity assay (LcV), MTT; assay type: cell-based; conditions: murine lymphocytes, MTT viability (50% cytotoxicity)
Experimental: (§1) The LCV is a in vitro cytotoxicity assay for murine lymphocytes designed by the investigator. The LCV is similar to the MLR with the exception that only one cell population (Balb/c) is incubated with the test compound to assess cytotoxicity as distinct from the antiproliferative effects of a test compound. That is, unlike the unambiguous determination of immunostimulation from MLR data, a judgement of immunosuppression can not be immediately interpreted. Cytotoxicity (e.g., due to direct cell lysis) from a compound can occur which would alter viability determinations inherent in the generation of MLR data. […] The percent viable cells is determined by the MTT-thiazolyl blue method after a similar incubation to the MLR of lymphocytes with the test sample. MTT is a substrate converted by mitochondrial enzymes in living cells to a purple, water-insoluble, formazan crystal. If there is no significant reduction in cell viability, as determined by this detection method, then damaged cells are probably not present for low data values generated in the MLR. Colorimetric data from the LCV is calculated as a percentage of viability, relative to control, using the following formula: [formula]
(§2) A 50% viability, or 50% cytotoxicity, (IC50) value was interpolated for sesbanimide containing fractions tested.
(§3) Lymphocytes are prepared as described above for the MLR with the exception that cells from only one murine strain are prepared (BLAB/c). Reconstituted extract (10 μl) is added in two sets of duplicates into wells of a 96-well microtiter plate and evaporated to dryness at room temperature. Lymphocytes (2.5×10^6 cells/ml) are added to one set of duplicates and to wells containing no sample. Media containing no cells are added to the other set of duplicates to provide background color control data. Plated are incubated in a 5% CO2 incubator for 4 hours and pulsed with MTT-thiazolyl blue for 6-8 hours.

[4] = as above; assay type: cell-based, murine; conditions: mouse, lymphocytes; LcV; read-out: cytotoxicity IC50
Experimental: as §1, §2, §3

[5] = Toxicology (MTD, LD50) in CD-1 or CB6F1 mice; assay type: in vivo, mouse; conditions: mouse, in vivo, CD-1 or CB6F1 mice
Experimental: (§4) The MTD establishes the parameters to establish in vivo dosages initiated for studying the Graft-v-Host reaction and skin grafting. The Swiss conventional mouse (Charles River CD-1) is used in a weight range from 18-30 g.
(§5) Animals are injected with a single dose at four dose levels: e.g., 400 mg/kg, 100 mg/kg, 40 mg/kg, and 10 mg/kg in 0.5 ml of sterile vehicle (2 animals per dose, MTD). A saline solution containing 5% non-denatured EtOH and a drop of Tween-80 detergent is used a vehicle for dilution. Stirring and sonication are utilized to effect solution or suspension of the composition. The composition is injected within one hour of preparation. Animals are observed for five days (MTD) after injection for toxic symptoms and/or death. Group weights are taken D0 and D5. Surviving animals are sacrificed on D5 (MTD). A `Daily Logsheet` used in the toxicity studies is appended.

CD-1 or CB6F1 mice = test: Toxicology (MTD, LD50) in CD-1 or CB6F1 mice; assay type: in vivo, mouse
Experimental: as §4, §5

leukemia = conditions: isolated from Sesbania drummondi; cited from earlier work
[6] = system: murine lymphocytes (Balb/c and C57BI/6, cocultured); test: In vitro murine mixed lymphocyte reaction (MLR); assay type: cell-based; conditions: for MLR IC50: murine MLR, 96 h incubation, 15 h 3H-Thy pulse; for Index Cytotox./Activity: ratio LcV IC50 / MLR IC50
Experimental: The MLR is an in vitro test of cellular immunity in which murine lymphocytes from genetically dissimilar animals are cocultured to mutually induce cell proliferation (i.e., two-way MLR method). Mixed cell suspensions, together with the test compound, are incubated for 96 hours and subsequently pulsed for 15 hours with tritiated-thymidine (3H-Thy), a radioisotopically labelled nucleic acid. Tritiated-thymidine is incorporated into the DNA of proliferating cells. Data from the MLR is generated as dpm of radioactivity which is then expressed as a percentage of cellular activity, relative to control, using the following reduced formula: [formula]
A 50% inhibitory concentration (IC50) value was interpolated for sesbanimide containing fractions tested. A ratio between cytotoxicity, as determined from the LcV described below, and activity in the MLR is also presented. A high ratio distinguishes noncytotoxic immunosuppression from general cytotoxicity.
Reconstituted extract (10 μl) is added in two sets of duplicates into wells of a 96-well microtiter plate and evaporated to dryness at room temperature. […] To the other set of sample duplicates is added complete media without cells so as to provide for background color control data. All plated are incubated in a 5% CO2 incubator for 96 hours and pulsed for 15 hours with 100 μl containing 1 μCi/well tritiated-thymidine (^3 H-Thy). The plates are harvested onto glass fiber filter discs using an INOTECH harvester. The filter discs are counted directly using an INOTECH dry scintillation counter. The activity of the discs are calculated as a relative proliferative percent of a mean control value as described above.

polymyxin
Antibiotic sensitivity of strain PH-103 [1]: resistant

C=CC[C@@H]1/C=C(\C)C[C@H](C)C[C@H](OC)[C@H]2O[C@@](O)(C(=O)C(=O)N3CCCC[C@H]3C(=O)O[C@H](/C(C)=C/[C@@H]3CC[C@@H](O)[C@H](OC)C3)[C@H](C)[C@@H](O)CC1=O)[C@H](C)C[C@@H]2OC [FK 506]
potency relative to cyclosporin A (in words) [2]: more potent than cyclosporin A

O=P1(N(CCCl)CCCl)NCCCO1 (stereo not shown) [Cyclophosphamide, cyclophosphamide]
Alive Day 8 (Graft-v-Host Reaction; 200.0 mg/kg, test 124-93): 100% | GVHR Index (Graft-v-Host Reaction; 200.0 mg/kg, test 124-93, positive 1.32): 0.23 | Alive Day 8 (Graft-v-Host Reaction; 200.0 mg/kg, test 811-93): 60% | GVHR Index (Graft-v-Host Reaction; 200.0 mg/kg, test 811-93, positive 1.34): 0.28

CCn1cc(C(=O)O)c(=O)c2ccc(C)nc21 [nalidixic acid]
Antibiotic sensitivity of strain PH-103 [1]: Sensitive

CN[C@H](CC(C)C)C(=O)N[C@H]1C(=O)N[C@@H](CC(N)=O)C(=O)N[C@H]2C(=O)N[C@H]3C(=O)N[C@H](C(=O)N[C@H](C(=O)O)c4cc(O)cc(O)c4-c4cc3ccc4O)[C@H](O)c3ccc(c(Cl)c3)Oc3cc2cc(c3O[C@@H]2O[C@H](CO)[C@@H](O)[C@H](O)[C@H]2O[C@H]2C[C@](C)(N)[C@H](O)[C@H](C)O2)Oc2ccc(cc2Cl)[C@H]1O [vancomycin]
Antibiotic sensitivity of strain PH-103 [1]: resistant

C=C1COC(O)(C2OCOC(C3CC(=O)NC(=O)C3)C2O)C1C (single isomer, unassigned) [Sesbanimide]
LcV IC50 ([3]; listed as ET 103/64-6:8): 13.100 µg/mL | LcV IC50 ([3]; listed as ET 103/89-4): 0.417 µg/mL | CC50 at 4 h [4]: 0.417 to 3.6 µg/mL (≈ 1.27 to 11 µM) | survival at 120 h ([5]; at maximum tolerated dose, read-out: Alive Day 5): 100% | MTD at 120 h ([5]; read-out: Maximum Tolerated): 0.56 mg/kg | LD50 (CD-1 or CB6F1 mice; CD-1 or CB6F1 mice): 0.805 mg/kg | toxicity at 56, 10.5 and 5.6 mg/kg (CD-1 or CB6F1 mice; pure compound, in vivo, 56, 10.5 and 5.6 mg/kg): toxic | toxicity at total doses equal to or lower than 0.56 mg/kg (CD-1 or CB6F1 mice; pure compound, in vivo, total dose ≤0.56 mg/kg): no toxicity | immunosuppressive activity in GVHR (in words) (Graft-v-Host Reaction; Table 6 data): potent immunosuppressive activity | Alive Day 8 (Graft-v-Host Reaction; optimal dose 0.2 mg/kg, i.p. per diem 7 days): 40% | GVHR Index (Graft-v-Host Reaction; optimal dose 0.2 mg/kg, i.p. per diem 7 days, positive 1.34): 0.92 | antineoplastic activity (in words) (leukemia): antineoplastic activity, particularly against leukemia | immunosuppressive activity (in words) ([6]; Table 4 data: trace amounts of an extract, major constituent, or pure compound): potent immunosuppressive activity | MLR IC50 ([6]; listed as ET 103/64-6:8): < 0.0075 µg/mL | MLR IC50 ([6]; listed as ET 103/89-4): 0.00015 µg/mL | Index Cytotox./Activity ([6]; listed as ET 103/64-6:8): > 1,746 | Index Cytotox./Activity ([6]; listed as ET 103/89-4): 2,777
